Measured values reported in PMC12589998, “Development and validation of a UHPLC-QqQ-MS/MS method for simultaneous determination of fifteen major components from Oroxyli seed extract in rat plasma and its application in the pharmacokinetic study” (Frontiers in Pharmacology, 2025).
Read-outs that look alike come from different tables or passages of the source.

Tests used:
[1] = Pharmacokinetic study in rats after oral administration of OS extract (UHPLC-QqQ-MS/MS of plasma); format: in vivo, rat; conditions: for concentration at 0.5 h / AUC(0-t) / AUC(0-inf) / Cmax / half-life / Tmax: male; for concentration at 0.5 h: SD, 3 g/kg, rat plasma collected 0.5 h after oral administration of the OS extract, read-out: Concentration printed in MRM chromatogram of plasma sample (Figure 2C); for AUC(0-t) / AUC(0-inf) / Cmax / half-life / Tmax: rat plasma, oral 3 g/kg OS extract, n = 6, mean ± SD; for AUC(0-t): read-out: AUC(0-t); for AUC(0-inf): read-out: AUC(0-∞); for Cmax: read-out: Cmax; for half-life: read-out: T1/2 (converted); for Tmax: read-out: Tmax
Method: The UHPLC-QqQ-MS/MS system consisted of a 1290 UHPLC and a 6470 mass spectrometer (Agilent Technologies). Chromatographic separation was realized on utilizing an ACQUITY UPLC BEH C18 column (2.1 × 100 mm, 1.7 μm) maintained at 35 °C. The mobile phase consisting of 0.1% formic acid in water (A) and acetonitrile (B) was utilized with the elution program set at 0 min–1 min, 5% B–30% B; 1 min–4 min, 30% B– 50% B; 4 min–8 min, and 50% B–90% B. The injection volume was 5 μL, and the flow rate was 0.3 mL/min. The mass spectrometry parameters in the negative ion mode, gas temperature, flow rate, and nebulizer pressure were 300 °C, 7 L/min, and 35 psi, respectively. The mass spectra properties of the 15 analytes and the IS are illustrated in Table 1.
To 100 μL of the plasma sample, 20 μL of methanol, 20 μL of IS solution (methylparaben, 1 μg/mL), and 5 μL of formic acid were added and vortexed for a duration of 2 min. Subsequently, the mixture underwent extraction with 800 μL of acetonitrile for 3 min. Following 10 min of centrifugation at 12,000 g, the supernatant was collected and evaporated to dryness under N2 to obtain the residue. Finally, the residue was reconstituted in 50% methanol (100 μL) and utilized for analysis.
Before initiating the study, six male SD rats underwent a 12-h fasting period, during which they were granted unrestricted access to water. Then, the rats were administered an oral dose of 3 g/kg of the OS extract, which had been dissolved in 0.5% CMC-Na aqueous solution. Blood samples, approximately 200 μL each, were collected at various time points: before administration and at 0.03, 0.08, 0.17, 0.25, 0.5, 0.75, 1, 2, 4, 6, 8, 10, 12, 24, 36, and 48 h post-administration. Following 10 min of centrifugation at 6,000 g, the resultant samples were stored at −80 °C.
The developed method was effectively applied to study the pharmacokinetics in rats following oral administration of the OS extract. […] This was likely due to their low concentrations in the OS extract. Ultimately, nine components (chrysin, chrysin-7-O-β-D-glucuronide, baicalin, baicalein, oroxin A, oroxin B, oroxylin A, oroxylin A-7-O-β-D-glucuronide, and scutellarein) were successfully fitted with pharmacokinetic parameters. The average plasma concentration–time profiles of these substances are depicted in Figure 3. […] All data were presented as the mean ± standard deviation (Mean ± SD).

[2] = Stability of the analytes in rat plasma samples under storage conditions; format: physicochemical; conditions: n = 6
Method: The bioanalytical method validation was evaluated for specificity, linearity, sensitivity, precision and accuracy, recovery, matrix effect, and stability to ensure compliance with the U.S. Food and Drug Administration (FDA) guidance on precise quantitative analysis ([Center for Drug Evaluation and Research of the U.S., 2018]). The assessment of specificity was conducted by comparing the chromatograms obtained from blank plasma, blank plasma spiked with the target components, and samples gathered following the oral administration of OS extract. Calibration curves were constructed by plotting the ratio for the peak area of the analyte to IS versus the concentration, with 1/x^2 serving as the weighting factor. The lower limit of quantification (LLOQ) was defined as the concentration at which a signal to noise ratio of […] 10 was achievable. The evaluation of precision and accuracy involved the analysis of six QC samples, both within a single day and over 3 consecutive days. Accuracy was expressed as the relative error (RE), whereas precision was gauged via relative standard deviation (RSD). Extraction recovery was ascertained by juxtaposing the responses of analytes in extracted samples against those in samples that were spiked post-extraction. The matrix effect was scrutinized by determining the ratio of the responses of the analytes in post-extraction spiked samples to those in the mixed standard solution. The stability of the analytes in plasma samples was explored under diverse conditions: encompassing a 12-h period in an autosampler, a 4-h interval at room temperature, three cycles of freezing–thawing, and a 7-day duration at −80 °C.
The retention times of the analyte peaks were consistent with those in the spiked samples. […] The LLOQs for chrysin, chrysin-7-O-β-D-glucuronide, hispidulin, wogonoside, quercetin, quercetin-7-O-β-D-glucoside, baicalin, baicalein, acacetin, oroxin A, oroxin B, oroxylin A, oroxylin A-7-O-β-D-glucuronide, apigenin, and scutellarein were 1.0, 2.0, 1.0, 0.3, 1.0, 0.1, 9.0, 6.0, 0.3, 6.0, 4.0, 1.0, 2.0, 0.5, and 0.3 ng/mL, respectively. In Supplementary Table S2, the RE for accuracy is between −13.77% and 12.55%, and the RSD for precision is below 14.55% (both intra- and inter-day). […] The matrix effect varied from 60.15% to 115.53%, with RSD values below 10.54%. In Supplementary Table S4, the RSD values for stability of the analytes are found to be lower than 13.98%, meaning that these components were stable under the following conditions: encompassing a 12-h period in an autosampler, a 4-h interval at room temperature, three cycles of freezing and thawing, and a 7-day duration at −80 °C.

[3] = spiked concentration 6400 ng/mL

| concentration at 0.5 h [1] | AUC(0-t) [1] | AUC(0-inf) [1] | Cmax [1] | half-life [1] | Tmax [1] | Measured, -80°C for 7 days ([2]; spiked concentration 40 ng/mL) | Measured, Autosampler for 12 h ([2]; spiked concentration 40 ng/mL) | Measured, Room temperature for 4 h ([2]; spiked concentration 40 ng/mL) | Measured, Three freeze-thaw cycles ([2]; spiked concentration 40 ng/mL) | Measured, -80°C for 7 days ([2]; spiked concentration 400 ng/mL) | Measured, Autosampler for 12 h ([2]; spiked concentration 400 ng/mL) | Measured, Room temperature for 4 h ([2]; spiked concentration 400 ng/mL) | Measured, Three freeze-thaw cycles ([2]; spiked concentration 400 ng/mL) | Measured, -80°C for 7 days [2, 3] | Measured, Autosampler for 12 h [2, 3] | Measured, Room temperature for 4 h [2, 3] | Measured, Three freeze-thaw cycles [2, 3] | SMILES | further results |
| --- | --- | --- | --- | --- | --- | --- | --- | --- | --- | --- | --- | --- | --- | --- | --- | --- | --- | --- | --- |
| – | – | – | – | – | – | – | – | – | – | – | – | – | – | – | – | – | – | COc1c(O)cc2oc(-c3ccc(O)cc3)cc(=O)c2c1O [Hispidulin, hispidulin] | concentration at 0.5 h ([1]; in vivo): 36 ng/mL; Plasma levels ([1]; rat plasma after oral OS extract): too weak to obtain comprehensive pharmacokinetic curves; Measured, -80°C for 7 days ([2]; spiked concentration 2 ng/mL): 1.85 ± 0.14 ng/mL; Measured, Autosampler for 12 h ([2]; spiked concentration 2 ng/mL): 1.79 ± 0.08 ng/mL; Measured, Room temperature for 4 h ([2]; spiked concentration 2 ng/mL): 1.87 ± 0.12 ng/mL; Measured, Three freeze-thaw cycles ([2]; spiked concentration 2 ng/mL): 1.77 ± 0.14 ng/mL; Measured, -80°C for 7 days ([2]; spiked concentration 20 ng/mL): 19.90 ± 2.31 ng/mL; Measured, Autosampler for 12 h ([2]; spiked concentration 20 ng/mL): 21.61 ± 2.09 ng/mL; Measured, Room temperature for 4 h ([2]; spiked concentration 20 ng/mL): 21.29 ± 2.88 ng/mL; Measured, Three freeze-thaw cycles ([2]; spiked concentration 20 ng/mL): 20.10 ± 2.62 ng/mL; Measured, -80°C for 7 days ([2]; spiked concentration 320 ng/mL): 280.72 ± 21.00 ng/mL; Measured, Autosampler for 12 h ([2]; spiked concentration 320 ng/mL): 304.61 ± 18.62 ng/mL; Measured, Room temperature for 4 h ([2]; spiked concentration 320 ng/mL): 315.17 ± 13.17 ng/mL; Measured, Three freeze-thaw cycles ([2]; spiked concentration 320 ng/mL): 289.06 ± 17.23 ng/mL |
| 1300 ng/mL | 3990 ng·h/mL | 4060 ng·h/mL | 2890 ng/mL | 3.42 ± 2.51 h | 0.25 h | 41.12 ± 0.77 ng/mL | 39.49 ± 3.13 ng/mL | 38.81 ± 2.31 ng/mL | 39.17 ± 2.11 ng/mL | 385.78 ± 15.57 ng/mL | 419.46 ± 28.69 ng/mL | 388.37 ± 19.15 ng/mL | 395.82 ± 21.75 ng/mL | 6200.94 ± 362.67 ng/mL | 6572.01 ± 389.34 ng/mL | 6516.27 ± 414.24 ng/mL | 6021.13 ± 378.88 ng/mL | O=c1cc(-c2ccccc2)oc2cc(O[C@@H]3O[C@H](CO)[C@@H](O)[C@H](O)[C@H]3O)c(O)c(O)c12 [Oroxin A, oroxin A] | – |
| 1130 ng/mL | 2120 ng·h/mL | 2230 ng·h/mL | 1990 ng/mL | 3.97 ± 1.37 h | 0.22 ± 0.04 h | 37.76 ± 3.31 ng/mL | 39.10 ± 2.32 ng/mL | 41.95 ± 3.13 ng/mL | 38.40 ± 1.50 ng/mL | 393.06 ± 24.72 ng/mL | 436.20 ± 27.56 ng/mL | 430.23 ± 11.61 ng/mL | 392.81 ± 19.18 ng/mL | 5937.71 ± 352.01 ng/mL | 6506.73 ± 286.20 ng/mL | 6564.94 ± 412.78 ng/mL | 6068.65 ± 216.91 ng/mL | O=c1cc(-c2ccccc2)oc2cc(O[C@@H]3O[C@H](CO[C@@H]4O[C@H](CO)[C@@H](O)[C@H](O)[C@H]4O)[C@@H](O)[C@H](O)[C@H]3O)c(O)c(O)c12 [Oroxin B, oroxin B] | – |
